The values that follow come from US12042500B2, “Mucoadhesive drug delivery system for ocular administration of fluoroquinolone antibiotics” (HYDERABAD EYE RESEARCH FOUNDATION, priority 2018, dated 2024).

Marks after values point to notes of the source that are not given here. Some results are limits rather than exact numbers.

For one data set, the system named is excised human cornea. The procedure:
HPLC analysis was performed using Shimadzu Prominence UFLC, LC-20 system (Shimadzu, Japan) with a C18 column (Shimpack GIST column, 5 μm, 4.6×250 mm). The mobile phase used for besifloxacin analysis comprised of a mixture of 0.5% triethylamine solution (pH adjusted to 3.0 with 10% ortho-phosphoric acid) and acetonitrile (ACN) (74:26, v/v) (Costa et al, 2014). […] The injection volume was 50 μl for all the standards and test solutions. The flow rate and column temperature were maintained at 1.0 ml/min and 25° C., respectively. […] The amount of drug release was determined using respective standard calibration curves.
Excised human cornea was washed with PBS and mounted between donor and receptor compartments with epithelial side facing donor chamber. Receptor medium contained PBS maintained at 37±1° C. temperature using heated water circulator unit. The donor compartment was charged with 0.4% of drug containing polymeric hydrogel, standard drug solution or marketed formulation. Samples (300 μl) were withdrawn from the receptor chamber at predetermined time intervals including 0.5, 1, 2, 4, 6, 12 and 24 h. Samples were analyzed by HPLC method described above. […] Corneal permeation parameters were calculated from cumulative amount of drug permeated vs. time profile. Flux (J) was calculated from the slope of the linear portion of cumulative amount of permeated vs. time profile. Lag time (ttag) was calculated by extrapolating the linear portion of the curve to time axis. Permeability coefficient (Kp) was calculated using Equation 1.

A short description of data set [1]: In vitro drug release study, Franz diffusion cell with dialysis membrane. As to conditions: PBS pH 7.4, 33±1° C., 2 mg drug in donor. Type of data set: physicochemical. How it is done: In vitro release of drugs was performed using Franz diffusion cell apparatus (Permegear Inc., USA). […] The donor compartment was loaded with 2 mg of drug containing polymeric hydrogel or standard drug solution or marketed formulation. […] Samples were analyzed using HPLC method described above.

Data set [2] has as its system Staphylococcus aureus (ATCC 25923) infected human cornea. The experiment in a line: Antibacterial activity in ex vivo corneal infection model. Type of data set: cell-based. The following applies: infected cornea incubated 30 min with 0.4% formulation, then 24 h; 10^−7 dilution; n=3. The procedure:
Human corneas were incubated in antibiotic free DMEM media overnight at 37° C. […] After 24 h incubation at 37° C., the infected corneas were washed again with PBS and used for further studies. The infection-free corneas were used as controls (Pinnock, et. al, 2017). Infected cornea was washed, and a metal ring was placed on the corneoscleral button, creating a watertight seal. Drug formulations (0.4%) were added to the center of the ring and incubated for 0.5 and 1.5 h at 37° C. Later, the corneas were washed thoroughly with PBS to remove the excess formulation and incubated for 24 h at 37° C. The cornea was then homogenized, and the resulting suspension was serially diluted. A 10 μl sample was spotted on agar plates at 10^−5, 10^−6, 10^−7, 10^−8 dilutions for colony enumeration. The colonies were counted visually and expressed in colony forming units (CFU) using Equation 2. The antibacterial activity of drugs loaded in hydrogel formulations was evaluated against Staphylococcus aureus (ATCC 25923) infected human cornea (n=3).

Turning to `N[C@@H]1CCCCN(c2c(F)cc3c(=O)c(C(=O)O)cn(C4CC4)c3c2Cl)C1` [Besifloxacin Std., besifloxacin], the Permeability coefficient in the data set with excised human cornea is 15.57 ×10^−3, cm^2/h. Further, in the data set with excised human cornea (human, 0.4 %), the Diffusion coefficient is listed as 21.34 ×10^−3, the Flux is on record as 36.80 ± 13.99 μg/cm^2/h and the Lag time is listed as 1.22 ± 0.39 h. For the same compound, the Corneal tissue concentration in the data set with excised human cornea (human, 0.5 h, 0.4 %) is on record as 398±50 μg/gram of tissue. Moreover, in the data set with excised human cornea (human, 24 h, 0.4 %), the Cumulative amount permeated was determined as 1267.42 ± 37.56 μg/cm^2 and the “Cumulative amount permeated across cornea” value amounted to 1267 ± 38 µg. Besides, the “Time to 100% release / complete diffusion across the membrane” value in data set [1] is listed as no more than 10 h. Besides, the CFU/ml in data set [2] was 2.5 ± 0.82 CFU/ml (×10^9).

For the compound `C[C@H]1COc2c(N3CCN(C)CC3)c(F)cc3c(=O)c(C(=O)O)cn1c23` [Levofloxacin Std., levofloxacin], the CFU/ml in data set [2] was 8.3 ± 5.10 CFU/ml (×10^9).
